Experimental data published in patent publication US7084176B2, “N-arylphenylacetamide derivatives and medicinal compositions containing the same” (Dainippon Pharmaceutical Co., Ltd., priority 2001, dated 2006).
Values belong to the molecule of their own block, whether it stands above or below them.

Columns and labels:
[1] = literature report; cited from earlier work
[2] = tested on: VR1 receptor; conditions: animal pain model; VR1 receptor antagonist; cited from earlier work
[3] = tested on: male Std:ddY mice; assay: Phenyl-1,4-benzoquinone-induced writhing test; type: in vivo; conditions: Mus musculus, po
Procedure, shortened: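 Compounds were given orally suspended in 0.5% tragacanth; subcutaneous controls got saline with 10% Tween 80 and 10% ethanol. Writhing counts after phenyl-1,4-benzoquinone were compared with vehicle controls as % inhibition [(A−B)/A]×100. ED50 (mg/kg) was derived by logit analysis.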

[4] = tested on: Jcl:SD strain male rats; assay: Study of pungency (eye wiping test); type: in vivo; conditions: a drop into the eye of rats, counted for 3 minutes, average ± S.E.M.
Protocol: Experiment 2: Study of Pungency (Eye Wiping Test)
The pungency of the test compounds were studied referring to the method of Jancso et al. [Acta Physiol. Acad. Sci. Hung., 19, 113–131 (1961)] and the method of Szallasi et al. [Brit. J. Pharmacol., 119, 283–290 (1996)]. A test compound was dissolved in a physiological saline solution containing 10% ethanol and 10% Tween 80 into various concentrations (μg/ml), and a drop of the solution thereof was added dropwise into the eye of Jcl:SD strain male rats (5 to 25 […] per group, body weight; 220 to 280 g). Then, the number of the protective wiping movements with forefoot was counted for 3 minutes, and was considered as an index for pungency. The test results are expressed as average value±S.E.M., and the statistical significant differences between each test compound-treated group and the control group were analyzed using non-parametric Dunnett's multiple range test, and p<0.05 was considered as significant difference.

Compound: CCCCCc1ccc(C(=O)NCc2ccc(O)c(OC)c2)cc1 [N-(4-hydroxy-3-methoxybenzyl)-4-pentylbenzamide]
- analgesic effect [1]: no analgesic effect

Compound: Oc1cc2c(cc1O)CN(C(=S)NCCc1ccc(Cl)cc1)CCC2 [capsazepin]
- analgesic effect [2]: significant analgesic effect

- Number of wiping movements ([4]; concentration 500 μg/ml): no significant increase
- Number of wiping movements ([4]; concentration 500 μg/ml, listed as Ex. 225): 4.4 ± 2.1
- Number of wiping movements ([4]; concentration 1000 μg/ml): 1.6 ± 1.2
Compound: COc1cc(CC(=O)Nc2ccc3c(c2)C(=O)C(Cc2ccccc2)CC3)ccc1OCCN (stereo not shown) [Example 225, 4-(2-aminoethoxy)-3-methoxy-N-[1-oxo-2-phenylmethyl-1,2,3,4-tetrahydronaphthalen-7-yl]phenylacetamide]
- inhibition in vivo at 10 mg/kg ([3]; 1 h, orally administered at a dose of 10 mg/kg, 60 minutes before PBQ, read-out: Inhibitory percentage (%)): 73.5%
- ED50 ([3]; oral administration, writhing inhibition, logit analysis, read-out: ED50 (mg/kg po)): 4.79 mg/kg
